Experimental data as given in the NIST ThermoML archive (doi:10.1021/acs.jced.8b00662).
± gives the expanded uncertainty stated by the source.

Test: xn = mol fraction of the nth substance listed
Details: 100 kPa, Liquid; for viscosity: Falling or rolling sphere viscometry; for mass density: Vibrating tube method

CC(C)C1CCCCC1 [(1-methylethyl)cyclohexane] + OCC1CC1
Details | mass density [kg/m3] | viscosity [mPa·s]
293.15 K, x1 = 0.0996 | 891.76 ± 1.1 | –
293.15 K, x1 = 0.1003 | – | 3.277 ± 0.07
293.15 K, x1 = 0.1991 | 874.27 ± 1.1 | 2.592 ± 0.055
293.15 K, x1 = 0.2995 | 859.61 ± 1 | 2.18 ± 0.047
293.15 K, x1 = 0.3996 | 847.35 ± 1 | 1.862 ± 0.04
293.15 K, x1 = 0.4993 | 836.86 ± 1 | 1.621 ± 0.035
293.15 K, x1 = 0.5997 | 827.69 ± 1 | –
293.15 K, x1 = 0.619 | – | 1.406 ± 0.03
293.15 K, x1 = 0.7011 | 819.71 ± 0.99 | 1.288 ± 0.028
293.15 K, x1 = 0.7967 | 812.9 ± 0.98 | 1.192 ± 0.026
293.15 K, x1 = 0.9026 | 806.51 ± 0.98 | 1.115 ± 0.024
293.15 K, x1 = 1 | 802.14 ± 0.97 | 1.093 ± 0.023
298.15 K, x1 = 0.0996 | 887.68 ± 1.1 | –
298.15 K, x1 = 0.1003 | – | 2.876 ± 0.061
298.15 K, x1 = 0.1991 | 870.17 ± 1.1 | 2.286 ± 0.049
298.15 K, x1 = 0.2995 | 855.52 ± 1 | 1.937 ± 0.041
298.15 K, x1 = 0.3996 | 843.25 ± 1 | 1.668 ± 0.036
298.15 K, x1 = 0.4993 | 832.77 ± 1 | 1.463 ± 0.031
298.15 K, x1 = 0.5997 | 823.61 ± 1 | –
298.15 K, x1 = 0.619 | – | 1.281 ± 0.027
298.15 K, x1 = 0.7011 | 815.65 ± 0.99 | 1.18 ± 0.025
298.15 K, x1 = 0.7967 | 808.85 ± 0.98 | 1.099 ± 0.024
298.15 K, x1 = 0.9026 | 802.52 ± 0.97 | 1.033 ± 0.022
298.15 K, x1 = 1 | 798.24 ± 0.97 | 1.016 ± 0.022
303.15 K, x1 = 0.0996 | 883.58 ± 1.1 | –
303.15 K, x1 = 0.1003 | – | 2.523 ± 0.054
303.15 K, x1 = 0.1991 | 866.05 ± 1.1 | 2.028 ± 0.043
303.15 K, x1 = 0.2995 | 851.39 ± 1 | 1.729 ± 0.037
303.15 K, x1 = 0.3996 | 839.12 ± 1 | 1.499 ± 0.032
303.15 K, x1 = 0.4993 | 828.64 ± 1 | 1.325 ± 0.028
303.15 K, x1 = 0.5997 | 819.5 ± 0.99 | –
303.15 K, x1 = 0.619 | – | 1.17 ± 0.025
303.15 K, x1 = 0.7011 | 811.56 ± 0.98 | 1.085 ± 0.023
303.15 K, x1 = 0.7967 | 804.8 ± 0.98 | 1.015 ± 0.022
303.15 K, x1 = 0.9026 | 798.52 ± 0.97 | 0.958 ± 0.021
303.15 K, x1 = 1 | 794.34 ± 0.96 | 0.947 ± 0.02
308.15 K, x1 = 0.0996 | 879.43 ± 1.1 | –
308.15 K, x1 = 0.1003 | – | 2.227 ± 0.048
308.15 K, x1 = 0.1991 | 861.89 ± 1 | 1.807 ± 0.039
308.15 K, x1 = 0.2995 | 847.23 ± 1 | 1.551 ± 0.033
308.15 K, x1 = 0.3996 | 834.96 ± 1 | 1.356 ± 0.029
308.15 K, x1 = 0.4993 | 824.49 ± 1 | 1.207 ± 0.026
308.15 K, x1 = 0.5997 | 815.37 ± 0.99 | –
308.15 K, x1 = 0.619 | – | 1.075 ± 0.023
308.15 K, x1 = 0.7011 | 807.46 ± 0.98 | 1.001 ± 0.021
308.15 K, x1 = 0.7967 | 800.75 ± 0.97 | 0.941 ± 0.02
308.15 K, x1 = 0.9026 | 794.49 ± 0.96 | 0.893 ± 0.019
308.15 K, x1 = 1 | 790.43 ± 0.96 | 0.886 ± 0.019
313.15 K, x1 = 0.0996 | 875.25 ± 1.1 | –
313.15 K, x1 = 0.1003 | – | 1.912 ± 0.041
313.15 K, x1 = 0.1991 | 857.7 ± 1 | 1.617 ± 0.035
313.15 K, x1 = 0.2995 | 843.04 ± 1 | 1.399 ± 0.03
313.15 K, x1 = 0.3996 | 830.77 ± 1 | 1.231 ± 0.026
313.15 K, x1 = 0.4993 | 820.31 ± 0.99 | 1.103 ± 0.024
313.15 K, x1 = 0.5997 | 811.21 ± 0.98 | –
313.15 K, x1 = 0.619 | – | 0.99 ± 0.021
313.15 K, x1 = 0.7011 | 803.33 ± 0.97 | 0.927 ± 0.02
313.15 K, x1 = 0.7967 | 796.66 ± 0.97 | 0.876 ± 0.019
313.15 K, x1 = 0.9026 | 790.46 ± 0.96 | 0.834 ± 0.018
313.15 K, x1 = 1 | 786.51 ± 0.95 | 0.831 ± 0.018
318.15 K, x1 = 0.0996 | 871.02 ± 1.1 | –
318.15 K, x1 = 0.1003 | – | 1.706 ± 0.036
318.15 K, x1 = 0.1991 | 853.46 ± 1 | 1.454 ± 0.031
318.15 K, x1 = 0.2995 | 838.79 ± 1 | 1.266 ± 0.027
318.15 K, x1 = 0.3996 | 826.54 ± 1 | 1.121 ± 0.024
318.15 K, x1 = 0.4993 | 816.09 ± 0.99 | 1.012 ± 0.022
318.15 K, x1 = 0.5997 | 807.02 ± 0.98 | –
318.15 K, x1 = 0.619 | – | 0.916 ± 0.02
318.15 K, x1 = 0.7011 | 799.17 ± 0.97 | 0.861 ± 0.018
318.15 K, x1 = 0.7967 | 792.54 ± 0.96 | 0.817 ± 0.018
318.15 K, x1 = 0.9026 | 786.41 ± 0.95 | 0.782 ± 0.017
318.15 K, x1 = 1 | 782.59 ± 0.95 | 0.782 ± 0.017
323.15 K, x1 = 0.0996 | 866.78 ± 1.1 | –
323.15 K, x1 = 0.1003 | – | 1.525 ± 0.033
323.15 K, x1 = 0.1991 | 849.2 ± 1 | 1.312 ± 0.028
323.15 K, x1 = 0.2995 | 834.53 ± 1 | 1.151 ± 0.025
323.15 K, x1 = 0.3996 | 822.28 ± 1 | 1.027 ± 0.022
323.15 K, x1 = 0.4993 | 811.84 ± 0.98 | 0.932 ± 0.02
323.15 K, x1 = 0.5997 | 802.8 ± 0.97 | –
323.15 K, x1 = 0.619 | – | 0.849 ± 0.018
323.15 K, x1 = 0.7011 | 794.99 ± 0.96 | 0.802 ± 0.017
323.15 K, x1 = 0.7967 | 788.4 ± 0.96 | 0.764 ± 0.016
323.15 K, x1 = 0.9026 | 782.33 ± 0.95 | 0.735 ± 0.016
323.15 K, x1 = 1 | 778.66 ± 0.95 | 0.738 ± 0.016
328.15 K, x1 = 0.0996 | 862.47 ± 1 | –
328.15 K, x1 = 0.1003 | – | 1.372 ± 0.029
328.15 K, x1 = 0.1991 | 844.88 ± 1 | 1.189 ± 0.025
328.15 K, x1 = 0.2995 | 830.2 ± 1 | 1.05 ± 0.022
328.15 K, x1 = 0.3996 | 817.96 ± 0.99 | 0.943 ± 0.02
328.15 K, x1 = 0.4993 | 807.55 ± 0.98 | 0.861 ± 0.018
328.15 K, x1 = 0.5997 | 798.54 ± 0.97 | –
328.15 K, x1 = 0.619 | – | 0.791 ± 0.017
328.15 K, x1 = 0.7011 | 790.77 ± 0.96 | 0.75 ± 0.016
328.15 K, x1 = 0.7967 | 784.24 ± 0.95 | 0.717 ± 0.015
328.15 K, x1 = 0.9026 | 778.25 ± 0.95 | 0.692 ± 0.015
328.15 K, x1 = 1 | 774.72 ± 0.94 | 0.698 ± 0.015
333.15 K, x1 = 0.0996 | 858.1 ± 1 | –
333.15 K, x1 = 0.1003 | – | 1.239 ± 0.026
333.15 K, x1 = 0.1991 | 840.5 ± 1 | 1.082 ± 0.023
333.15 K, x1 = 0.2995 | 825.83 ± 1 | 0.961 ± 0.021
333.15 K, x1 = 0.3996 | 813.6 ± 0.99 | 0.869 ± 0.019
333.15 K, x1 = 0.4993 | 803.22 ± 0.97 | 0.799 ± 0.017
333.15 K, x1 = 0.5997 | 794.24 ± 0.96 | –
333.15 K, x1 = 0.619 | – | 0.738 ± 0.016
333.15 K, x1 = 0.7011 | 786.52 ± 0.95 | 0.702 ± 0.015
333.15 K, x1 = 0.7967 | 780.04 ± 0.95 | 0.674 ± 0.014
333.15 K, x1 = 0.9026 | 774.14 ± 0.94 | 0.654 ± 0.014
333.15 K, x1 = 1 | 770.77 ± 0.94 | 0.661 ± 0.014
338.15 K, x1 = 0.0996 | 853.67 ± 1 | –
338.15 K, x1 = 0.1003 | – | 1.124 ± 0.024
338.15 K, x1 = 0.1991 | 836.06 ± 1 | 0.988 ± 0.021
338.15 K, x1 = 0.2995 | 821.41 ± 0.99 | 0.883 ± 0.019
338.15 K, x1 = 0.3996 | 809.2 ± 0.98 | 0.804 ± 0.017
338.15 K, x1 = 0.4993 | 798.85 ± 0.97 | 0.743 ± 0.016
338.15 K, x1 = 0.5997 | 789.91 ± 0.96 | –
338.15 K, x1 = 0.619 | – | 0.69 ± 0.015
338.15 K, x1 = 0.7011 | 782.24 ± 0.95 | 0.66 ± 0.014
338.15 K, x1 = 0.7967 | 775.82 ± 0.94 | 0.636 ± 0.014
338.15 K, x1 = 0.9026 | 770.01 ± 0.94 | 0.619 ± 0.013
338.15 K, x1 = 1 | 766.81 ± 0.93 | 0.628 ± 0.013
343.15 K, x1 = 0.0996 | 849.17 ± 1 | –
343.15 K, x1 = 0.1003 | – | 1.023 ± 0.022
343.15 K, x1 = 0.1991 | 831.57 ± 1 | 0.905 ± 0.019
343.15 K, x1 = 0.2995 | 816.93 ± 0.99 | 0.815 ± 0.017
343.15 K, x1 = 0.3996 | 804.75 ± 0.97 | 0.746 ± 0.016
343.15 K, x1 = 0.4993 | 794.44 ± 0.96 | 0.693 ± 0.015
343.15 K, x1 = 0.5997 | 785.54 ± 0.95 | –
343.15 K, x1 = 0.619 | – | 0.648 ± 0.014
343.15 K, x1 = 0.7011 | 777.93 ± 0.94 | 0.622 ± 0.013
343.15 K, x1 = 0.7967 | 771.58 ± 0.94 | 0.601 ± 0.013
343.15 K, x1 = 0.9026 | 765.88 ± 0.93 | 0.587 ± 0.013
343.15 K, x1 = 1 | 762.84 ± 0.93 | 0.598 ± 0.013
